The source of these data is patent US20150144845A1, “SOLVENT OR SOLVENT COMPOSITION FOR ORGANIC TRANSISTOR PRODUCTION” (DAICEL CORPORATION, priority 2012, published 2015).

Like-named read-outs stand apart in the source and are kept apart here.

Data set [1] can be described thus: Visual solubility of pentacene in solvent for organic transistor production. The method, then: (§1) The resulting mixture was heated in a nitrogen atmosphere under a light-shielding condition at 100° C. for about 6 hours, preparing a composition for organic transistor production. With respect to the resulting composition for organic transistor production, the solubility of the organic semiconductor material was observed. Herein, the solubility was visually evaluated, and a case where no insoluble material was observed was rated as “∘: dissolution”, and a case where an insoluble material was observed was rated as “x: not dissolution”. The same shall apply hereafter.

Data set [2] is described as follows: Visual solubility of Rubrene in solvent for organic transistor production. In kind it is physicochemical. Particulars: summary of Examples, 100° C. The procedure:
as §1
Rubrene (compound represented by formula (2-1)) (produced by Tokyo Chemical Industry Co., Ltd.) was used as an organic semiconductor material, and each solvent for organic transistor production shown in Table 2 was used under an environment of 20° C., providing a mixture including the organic semiconductor material in a concentration of 4.00% by weight to 5.00% by weight. The resulting mixture was heated in a nitrogen atmosphere under a light-shielding condition at 100° C. for about 2 hours, preparing a composition for organic transistor production. With respect to the resulting composition for organic transistor production, the solubility of the organic semiconductor material was observed.

Data set [3] is described as follows: Visual solubility of DPh-BTBT in solvent for organic transistor production. The method, then:
as §1
(§2) The resulting mixture was heated in a nitrogen atmosphere under a light-shielding condition at 100° C. for about 2 hours, preparing a composition for organic transistor production. With respect to the resulting composition for organic transistor production, the solubility of the organic semiconductor material was observed.

The nature of data set [4]: Visual solubility of DNTT in solvent for organic transistor production. The method, then:
as §1, §2

In the case of `CN1CCN(C)C1=O` [1,3-dimethyl-2-imidazolidinone], the “solubility of pentacene in the solvent compared with tetralin and 1,2,4-trichlorobenzene” value in data set [1] was “better”. Further, the “solubility of Rubrene in the solvent compared with tetralin and 1,2,4-trichlorobenzene” value in data set [2] is “excellent”. The “solubility of DPh-BTBT in the solvent compared with tetralin and 1,2,4-trichlorobenzene” value in data set [3] is reported as “better”. In data set [4], the “solubility of DNTT in the solvent compared with tetralin and 1,2,4-trichlorobenzene” value was “better”.
For `CN1CCCN(C)C1=O` [1,3-dimethyl-3,4,5,6-tetrahydro-2(1H)-pyrimidinone], the “solubility of pentacene in the solvent compared with tetralin and 1,2,4-trichlorobenzene” value in data set [1] (summary of Examples, 100° C.) is listed as “better”. Also, the “solubility of Rubrene in the solvent compared with tetralin and 1,2,4-trichlorobenzene” value in data set [2] is listed as “excellent”. Further, in data set [3] (summary of Examples, 100° C.), the “solubility of DPh-BTBT in the solvent compared with tetralin and 1,2,4-trichlorobenzene” value is listed as “better”. For the same molecule, in data set [4] (summary of Examples, 100° C.), the “solubility of DNTT in the solvent compared with tetralin and 1,2,4-trichlorobenzene” value is given as “better”.
